Measurements: publication PMC12682947, “Identification of New KCNT1‐Epilepsy Drugs by In Silico, Cell, and Drosophila Modeling” (Annals of Neurology, 2025)
Where a name gives a salt, the structure may show the parent alone.

Tested on: Drosophila KCNT1 mutant line R928C
Assay: Bang-sensitive behavioral seizure assay, Drosophila KCNT1 mutant line R928C
Format: in vivo, Drosophila melanogaster
Settings: drug in food
Description: The Drosophila melanogaster lines carrying the WT human KCNT1 transgene (NM_020822_3) or KCNT1 mutant G288S, R398Q or R928C transgene placed downstream of the yeast UAS promoter, have been described previously.[11] WT or mutant human UAS‐KCNT1 flies were crossed to flies expressing the GAL4 transcriptional activator under the control of the GAD1 promoter (GABAergic driver, Bloomington stock number 51630 P2) to drive expression of KCNT1 in GABAergic neurons, involved in neuronal inhibition.[11]
The bang‐sensitive behavioral assay (also known as the banging assay) was used to test for the presence of a seizure phenotype in Drosophila.[11], [30] Experiments were performed and scored, as previously described,[11] with a minimum of 50 Drosophila tested for each genotype and drug concentration.
Four drugs were selected for in vivo analysis to determine their effects on the seizure phenotypes in transgenic Drosophila lines with human mutant KCNT1 channels. […]
In all experiments, experimenters were not blinded to variants or treatments, nor were samples randomly assigned to groups. Sample sizes were not calculated in advance and no data were excluded from the analysis. Data were analyzed using GraphPad Prism 9 software (San Diego, CA, USA). […] All data passed normality and lognormality Shapiro–Wilk tests, determined by GraphPad Prism 9. […]

SMILES | reduction of the seizure phenotype [%]
O=C(OCCN1CCN(c2cccc(C(F)(F)F)c2)CC1)c1ccccc1Nc1ccnc2cc(C(F)(F)F)ccc12 [antrafenine] | 25
Cc1c(O)cccc1C(=O)N[C@@H](CSc1ccccc1)[C@H](O)CN1C[C@H]2CCCC[C@H]2C[C@H]1C(=O)NC(C)(C)C [nelfinavir mesylate] | 50
